Results taken from ChEMBL document CHEMBL1275470, “Susceptibility testing and molecular classification of Paecilomyces spp” (2008).
≈ marks a conversion by molar mass, not a printed value. Starred links: 1 amine or outer side, 2 acyl side, 3 side chain; linkers in the order of their positions; H or OH if unused. Positions of bridges follow the written chain, without caps; N, C: chain ends. Non-standard residues stand in square brackets, D forms with d. Residues, ends and D or L forms follow the SMILES beside them. *: point of attachment. hTyr(3S-OH,4S-OH,3'-OSO3H) = N[C@H](C(=O)O)[C@H](O)[C@@H](O)c1ccc(O)c(OS(=O)(=O)O)c1; pTerphenylCO(4''-OnC5H11) = CCCCCOc1ccc(-c2ccc(-c3ccc(C(=O)*)cc3)cc2)cc1; Orn(4R-OH,5R-OH) = O=C([C@H](C[C@@H](O)[C@@H](O)N[*:3])N[*:1])[*:2]; hTyr(3S-OH,4S-OH) = N[C@H](C(=O)O)[C@H](O)[C@@H](O)c1ccc(O)cc1; Pro(3S-OH,4S-Me) = C[C@H]1CN[C@H](C(=O)O)[C@H]1O; X1 = CCCCCOc1ccc(-c2cc(-c3ccc(C(=O)*)cc3)no2)cc1; Gln(3R-OH) = NC(=O)C[C@@H](O)[C@H](N)C(=O)O; Hyp = O=C(O)[C@@H]1C[C@@H](O)CN1

Columns and labels:
Paecilomyces variotii = experiment: Antimicrobial activity against Paecilomyces variotii by microdilution method; assay type: functional
Paecilomyces lilacinus = experiment: Antimicrobial activity against Paecilomyces lilacinus by microdilution method; assay type: functional; details: Purpureocillium lilacinum

| Structure (SMILES) | MIC (Paecilomyces variotii) [mg/L] | MIC (Paecilomyces lilacinus) [mg/L] |
| --- | --- | --- |
| CCCCCOc1ccc(-c2ccc(-c3ccc(C(=O)N[C@H]4C[C@@H](O)[C@@H](O)NC(=O)[C@@H]5[C@@H](O)[C@@H](C)CN5C(=O)[C@H]([C@@H](C)O)NC(=O)[C@H]([C@H](O)[C@@H](O)c5ccc(O)cc5)NC(=O)[C@@H]5C[C@@H](O)CN5C(=O)[C@H]([C@@H](C)O)NC4=O)cc3)cc2)cc1 [ANIDULAFUNGIN] ({pTerphenylCO(4''-OnC5H11)}-[Orn(4R-OH,5R-OH)]T[Hyp][hTyr(3S-OH,4S-OH)]T[Pro(3S-OH,4S-Me)]; lactam 1-C) | 0.016 (≈ 0.014 µM) | 27.1 (≈ 23.8 µM) |
| CC[C@@H]([C@H](C)O)n1ncn(-c2ccc(N3CCN(c4ccc(OC[C@@H]5CO[C@@](Cn6cncn6)(c6ccc(F)cc6F)C5)cc4)CC3)cc2)c1=O [POSACONAZOLE] | 0.04 (≈ 0.0571 µM) | 0.28 (≈ 0.4 µM) |
| CN(C/C=C/C#CC(C)(C)C)Cc1cccc2ccccc12 [TERBINAFINE] | 1.53 (≈ 5.25 µM) | 0.51 (≈ 1.75 µM) |
| C[C@@H](c1ncncc1F)[C@](O)(Cn1cncn1)c1ccc(F)cc1F [VORICONAZOLE] | 4.18 (≈ 12 µM) | 0.45 (≈ 1.29 µM) |

Now from value to compound:

| MIC (Paecilomyces variotii) [mg/L] | MIC (Paecilomyces lilacinus) [mg/L] | Structure (SMILES) |
| --- | --- | --- |
| 0.04 (≈ 0.0433 µM) | 29.6 (≈ 32 µM) | C[C@@H]1[C@H](O)[C@@H](C)/C=C/C=C/C=C/C=C/C=C/C=C/C=C/[C@H](O[C@@H]2O[C@H](C)[C@@H](O)[C@H](N)[C@@H]2O)C[C@@H]2O[C@](O)(C[C@@H](O)C[C@@H](O)[C@H](O)CC[C@@H](O)C[C@@H](O)CC(=O)O[C@H]1C)C[C@H](O)[C@H]2C(=O)O [AMPHOTERICIN B] |
| 0.44 (≈ 0.402 µM) | 27.9 (≈ 25.5 µM) | CC[C@H](C)C[C@H](C)CCCCCCCCC(=O)N[C@H]1C[C@@H](O)[C@@H](NCCN)NC(=O)[C@@H]2[C@@H](O)CCN2C(=O)[C@H]([C@H](O)CCN)NC(=O)[C@H]([C@H](O)[C@@H](O)c2ccc(O)cc2)NC(=O)[C@@H]2C[C@@H](O)CN2C(=O)[C@H]([C@@H](C)O)NC1=O [CASPOFUNGIN] |
| 0.06 (≈ 0.085 µM) | 13.4 (≈ 19 µM) | CCC(C)n1ncn(-c2ccc(N3CCN(c4ccc(OCC5COC(Cn6cncn6)(c6ccc(Cl)cc6Cl)O5)cc4)CC3)cc2)c1=O (stereo not drawn) [ITRACONAZOLE] |
| 0.018 (≈ 0.0142 µM) | 25.6 (≈ 20.2 µM) | CCCCCOc1ccc(-c2cc(-c3ccc(C(=O)N[C@H]4C[C@@H](O)[C@@H](O)NC(=O)[C@@H]5[C@@H](O)[C@@H](C)CN5C(=O)[C@H]([C@H](O)CC(N)=O)NC(=O)[C@H]([C@H](O)[C@@H](O)c5ccc(O)c(OS(=O)(=O)O)c5)NC(=O)[C@@H]5C[C@@H](O)CN5C(=O)[C@H]([C@@H](C)O)NC4=O)cc3)no2)cc1 [MICAFUNGIN] (X1-[Orn(4R-OH,5R-OH)]T[Hyp][hTyr(3S-OH,4S-OH,3'-OSO3H)][Gln(3R-OH)][Pro(3S-OH,4S-Me)]; lactam 1-C) |
| 4.89 (≈ 11.2 µM) | 0.73 (≈ 1.67 µM) | C[C@@H](c1nc(-c2ccc(C#N)cc2)cs1)[C@](O)(Cn1cncn1)c1ccc(F)cc1F [RAVUCONAZOLE] |
